Reference: ChEMBL document CHEMBL4732227, “Discovery of a novel potent cytochrome P450 CYP4Z1 inhibitor” (Eur J Med Chem, 2021)

Experiments:
Cytochrome P450 4Z1 [1] = target: T1, Cytochrome P450 4Z1 (Homo sapiens, UniProt Q86W10); assay: Inhibition of human CYP4Z1 overexpressed in human MCF7 cells at 1 uM using luciferin-3FBE as substrate incubated for 24 hrs followed by substrate addition by luminescence based assay relative to control; format: cell-based
T1 sequence (Q86W10 whole entry): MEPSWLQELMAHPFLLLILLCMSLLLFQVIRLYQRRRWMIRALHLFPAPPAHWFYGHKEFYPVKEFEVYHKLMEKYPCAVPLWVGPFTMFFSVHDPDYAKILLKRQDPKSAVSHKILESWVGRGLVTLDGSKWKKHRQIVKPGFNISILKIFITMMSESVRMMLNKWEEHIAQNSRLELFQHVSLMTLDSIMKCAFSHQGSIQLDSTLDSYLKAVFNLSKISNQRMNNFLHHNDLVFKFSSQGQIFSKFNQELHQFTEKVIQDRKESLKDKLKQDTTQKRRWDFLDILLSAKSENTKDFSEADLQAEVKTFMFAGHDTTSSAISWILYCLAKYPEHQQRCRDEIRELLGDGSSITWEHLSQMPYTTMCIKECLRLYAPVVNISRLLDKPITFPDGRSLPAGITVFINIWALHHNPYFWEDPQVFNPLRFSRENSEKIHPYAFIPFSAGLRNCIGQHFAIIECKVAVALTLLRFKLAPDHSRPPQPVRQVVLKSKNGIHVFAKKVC

Cytochrome P450 4Z1 [2] = target: T1, Cytochrome P450 4Z1; assay: Inhibition of human CYP4Z1 expressed in permeabilized fission AZ3 yeast cells at 100 nM using luciferin-3FBE as substrate incubated for 3 hrs by luminescence based enzyme bag assay relative to control; format: cell-based
Cytochrome P450 4Z1 [3] = target: T1, Cytochrome P450 4Z1; assay: Inhibition of human CYP4Z1 overexpressed in human MCF7 cells using luciferin-BE as substrate incubated for 24 hrs followed by substrate addition by luminescence based assay; format: cell-based
Cytochrome P450 4Z1 [4] = target: T1, Cytochrome P450 4Z1; assay: Inhibition of human CYP4Z1 overexpressed in human MCF7 cells using luciferin-3FBE as substrate incubated for 24 hrs followed by substrate addition by luminescence based assay; format: cell-based
CYP2C9 = CYP2C9 (Homo sapiens, UniProt P11712); assay: Inhibition of human CYP2C9 at 1 uM using luciferin-H as substrate by enzyme bag based one point inhibition assay relative to control; format: ADME; settings: enzyme bags, probe luciferin-H
CYP2E1 = CYP2E1 (Homo sapiens, UniProt P05181); assay: Inhibition of human CYP2E1 at 1 uM using luciferin-ME as substrate by enzyme bag based one point inhibition assay relative to control; format: ADME; settings: enzyme bags, probe luciferin-ME
CYP2C19 = CYP2C19 (Homo sapiens, UniProt P33261); assay: Inhibition of human CYP2C19 at 1 uM using luciferin-HEGE as substrate by enzyme bag based one point inhibition assay relative to control; format: ADME; settings: enzyme bags, probe luciferin-HEGE
CYP1A2 = target: T2, CYP1A2 (Homo sapiens, UniProt P05177); assay: Inhibition of human CYP1A2 at 1 uM using luciferin-ME as substrate by enzyme bag based one point inhibition assay relative to control; format: ADME; settings: enzyme bags, probe luciferin-ME
T2 sequence (P05177 whole entry): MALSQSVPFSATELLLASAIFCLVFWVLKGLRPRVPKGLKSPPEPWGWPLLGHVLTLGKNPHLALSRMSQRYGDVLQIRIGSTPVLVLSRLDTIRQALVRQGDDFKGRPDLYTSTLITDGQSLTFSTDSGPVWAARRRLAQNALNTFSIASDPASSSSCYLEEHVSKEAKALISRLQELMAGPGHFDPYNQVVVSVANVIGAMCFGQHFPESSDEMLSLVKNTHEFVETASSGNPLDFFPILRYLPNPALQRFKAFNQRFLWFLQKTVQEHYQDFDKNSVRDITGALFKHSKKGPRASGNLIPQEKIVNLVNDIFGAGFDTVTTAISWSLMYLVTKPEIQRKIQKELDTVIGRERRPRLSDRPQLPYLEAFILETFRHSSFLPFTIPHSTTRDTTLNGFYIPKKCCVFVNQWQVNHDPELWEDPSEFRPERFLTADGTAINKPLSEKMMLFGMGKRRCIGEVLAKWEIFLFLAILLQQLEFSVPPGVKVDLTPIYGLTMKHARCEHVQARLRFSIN

CYP2D6 = CYP2D6 (Homo sapiens, UniProt P10635); assay: Inhibition of human CYP2D6 at 1 uM using luciferin-MEEGE as substrate by enzyme bag based one point inhibition assay relative to control; format: ADME; settings: enzyme bags, probe luciferin-MEEGE
CYP3A4 = CYP3A4 (Homo sapiens, UniProt P08684); assay: Inhibition of human CYP3A4 at 1 uM using luciferin-BE as substrate by enzyme bag based one point inhibition assay relative to control; format: ADME; settings: enzyme bags, probe luciferin-BE
Chain of CYP3A4 (P08684 whole entry): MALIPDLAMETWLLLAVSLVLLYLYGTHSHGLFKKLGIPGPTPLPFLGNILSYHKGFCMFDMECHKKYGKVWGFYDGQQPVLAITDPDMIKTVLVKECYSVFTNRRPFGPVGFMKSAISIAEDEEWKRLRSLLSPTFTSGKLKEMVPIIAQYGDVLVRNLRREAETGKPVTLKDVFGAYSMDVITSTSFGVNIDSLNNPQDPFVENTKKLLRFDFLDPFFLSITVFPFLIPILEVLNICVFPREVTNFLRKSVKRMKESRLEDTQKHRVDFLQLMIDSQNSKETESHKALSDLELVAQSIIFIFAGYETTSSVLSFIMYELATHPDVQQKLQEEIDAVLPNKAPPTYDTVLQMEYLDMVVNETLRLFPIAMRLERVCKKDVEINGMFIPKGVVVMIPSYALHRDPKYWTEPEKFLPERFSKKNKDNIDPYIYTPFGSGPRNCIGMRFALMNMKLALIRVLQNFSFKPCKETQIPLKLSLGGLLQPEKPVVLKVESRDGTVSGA

Chain of CYP2C19 (P33261 whole entry): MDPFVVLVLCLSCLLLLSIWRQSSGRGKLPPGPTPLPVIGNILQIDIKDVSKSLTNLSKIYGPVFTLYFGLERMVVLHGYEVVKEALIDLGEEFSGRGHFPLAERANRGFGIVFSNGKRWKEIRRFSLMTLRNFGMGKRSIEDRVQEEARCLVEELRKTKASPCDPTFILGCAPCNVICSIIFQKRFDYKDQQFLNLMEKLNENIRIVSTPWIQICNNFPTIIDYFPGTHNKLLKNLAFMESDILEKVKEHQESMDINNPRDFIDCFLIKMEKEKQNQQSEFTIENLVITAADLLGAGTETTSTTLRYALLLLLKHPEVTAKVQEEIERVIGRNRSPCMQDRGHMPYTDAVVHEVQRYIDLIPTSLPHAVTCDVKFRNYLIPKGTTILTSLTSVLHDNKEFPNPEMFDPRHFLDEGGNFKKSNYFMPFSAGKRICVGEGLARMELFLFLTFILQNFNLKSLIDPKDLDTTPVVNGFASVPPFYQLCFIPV
Chain of CYP2D6 (P10635 whole entry): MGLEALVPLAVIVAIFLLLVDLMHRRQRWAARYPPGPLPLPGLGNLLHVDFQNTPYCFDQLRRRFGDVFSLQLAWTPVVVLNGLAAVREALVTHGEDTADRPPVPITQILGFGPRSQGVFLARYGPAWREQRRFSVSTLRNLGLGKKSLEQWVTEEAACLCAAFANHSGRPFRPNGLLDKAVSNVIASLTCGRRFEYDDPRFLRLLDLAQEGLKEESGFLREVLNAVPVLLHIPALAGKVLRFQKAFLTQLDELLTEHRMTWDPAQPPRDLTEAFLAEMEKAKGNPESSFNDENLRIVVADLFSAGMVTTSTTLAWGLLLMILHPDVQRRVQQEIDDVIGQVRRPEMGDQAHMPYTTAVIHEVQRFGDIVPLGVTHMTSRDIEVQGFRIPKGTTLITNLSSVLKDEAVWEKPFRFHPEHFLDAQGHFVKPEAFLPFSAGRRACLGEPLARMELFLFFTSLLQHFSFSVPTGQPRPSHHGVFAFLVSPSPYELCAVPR
Chain of CYP2E1 (P05181 whole entry): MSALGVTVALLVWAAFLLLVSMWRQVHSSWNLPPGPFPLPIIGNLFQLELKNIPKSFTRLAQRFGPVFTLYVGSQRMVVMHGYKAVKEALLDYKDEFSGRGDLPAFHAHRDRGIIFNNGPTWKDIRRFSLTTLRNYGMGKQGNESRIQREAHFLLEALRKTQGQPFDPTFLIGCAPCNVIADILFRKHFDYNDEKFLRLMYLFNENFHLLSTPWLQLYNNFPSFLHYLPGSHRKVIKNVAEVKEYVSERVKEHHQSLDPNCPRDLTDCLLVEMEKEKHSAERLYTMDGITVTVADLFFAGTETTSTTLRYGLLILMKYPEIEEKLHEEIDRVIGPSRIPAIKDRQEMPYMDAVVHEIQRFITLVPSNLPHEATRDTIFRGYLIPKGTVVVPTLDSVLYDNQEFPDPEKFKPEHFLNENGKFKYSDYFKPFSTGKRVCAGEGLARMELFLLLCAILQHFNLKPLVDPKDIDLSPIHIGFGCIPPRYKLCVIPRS
Chain of CYP2C9 (P11712 whole entry): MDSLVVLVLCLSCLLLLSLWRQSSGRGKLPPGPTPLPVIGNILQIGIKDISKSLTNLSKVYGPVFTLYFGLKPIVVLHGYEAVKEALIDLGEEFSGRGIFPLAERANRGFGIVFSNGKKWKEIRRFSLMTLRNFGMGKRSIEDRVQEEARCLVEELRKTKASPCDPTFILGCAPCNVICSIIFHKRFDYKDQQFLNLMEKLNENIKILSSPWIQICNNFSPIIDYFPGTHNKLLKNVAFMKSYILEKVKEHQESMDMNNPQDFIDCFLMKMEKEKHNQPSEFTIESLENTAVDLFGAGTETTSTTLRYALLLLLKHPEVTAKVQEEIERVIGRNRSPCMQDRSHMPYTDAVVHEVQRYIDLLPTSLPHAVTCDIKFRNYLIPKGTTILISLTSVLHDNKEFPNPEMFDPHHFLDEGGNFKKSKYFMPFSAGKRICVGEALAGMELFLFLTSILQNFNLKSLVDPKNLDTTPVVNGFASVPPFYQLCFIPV

Row | inhibition at 1 µM (Cytochrome P450 4Z1 [1]) | inhibition at 0.1 µM (Cytochrome P450 4Z1 [2]) | inhibition at 1 µM (CYP2C9) | inhibition at 1 µM (CYP2E1) | inhibition at 1 µM (CYP2C19) | inhibition at 1 µM (CYP1A2) | inhibition at 1 µM (CYP2D6) | inhibition at 1 µM (CYP3A4) | SMILES | IC50 (Cytochrome P450 4Z1 [3]) | IC50 (Cytochrome P450 4Z1 [4])
1 | 22% | 13% | – | – | – | – | – | – | CC1CCN(C(=O)c2cccc(OCC(=O)O)c2)CC1n1ccnc1 (stereo unspecified) | – | –
2 | 82% | 36% | -0.2% | 54% | 1.4% | 2.7% | -5.8% | 12% | O=C(O)c1cccc(CNC(=O)c2ccc(-n3ccnc3)cc2)c1 | – | 0.063 µM
3 | 10% | 5% | – | – | – | – | – | – | Cn1cnc2cc(C(=O)Nc3ccc(Oc4nn[nH]n4)cc3)ccc21 | – | –

More lines, now with the values behind:

Row | SMILES | inhibition at 1 µM (Cytochrome P450 4Z1 [1]) | inhibition at 0.1 µM (Cytochrome P450 4Z1 [2]) | inhibition at 1 µM (CYP2C9) | inhibition at 1 µM (CYP2E1) | inhibition at 1 µM (CYP2C19) | inhibition at 1 µM (CYP1A2) | inhibition at 1 µM (CYP2D6) | inhibition at 1 µM (CYP3A4) | IC50 (Cytochrome P450 4Z1 [3]) | IC50 (Cytochrome P450 4Z1 [4])
4 | O=C(O)CCC1CCCN(C(=O)c2ccc(Cn3ccnc3)cc2)C1 (stereo unspecified) | 12% | 1% | – | – | – | – | – | – | – | –
5 | c1ccc(Cn2ccnc2)cc1 | 0% | 9% | – | – | – | – | – | – | 5.9 µM | 6.7 µM
6 | O=C(O)/C=C/c1ccc(Cn2ccnc2)cc1 [OZAGREL] | 24% | 21% | – | – | – | – | – | – | – | –
